Experimental data published in patent publication US20240158446A1, “CYCLIC COMPOUND HAVING SELECTIVE INHIBITORY ACTION ON KRAS OVER HRAS AND NRAS” (CHUGAI SEIYAKU KABUSHIKI KAISHA, priority 2021, published 2024).
Read-outs that look alike come from different tables or passages of the source. Where a SMILES comes first, the peptide text is derived from it. Bridges are numbered along the chain shown (N, C = ends). [ ]: non-standard residue; d: D form. The star is where a group is joined. hPhe(3-Cl-4-CF3) = N[C@@H](CCc1ccc(C(F)(F)F)c(Cl)c1)C(=O)O; NPrPhe(4-CF3) = CCCN[C@@H](Cc1ccc(C(F)(F)F)cc1)C(=O)O; NMePhe(4-Me) = CN[C@@H](Cc1ccc(C)cc1)C(=O)O; NMeGly(cPent) = CN[C@H](C(=O)O)C1CCCC1; NMeD = CN[C@@H](CC(=O)O)C(=O)O; NMeL = CN[C@@H](CC(C)C)C(=O)O; Morpholide = C1CN(*)CCO1; Ac5c = NC1(C(=O)O)CCCC1; NPrGly = CCCNCC(=O)O; Sar = CNCC(=O)O

How the values were obtained:
[1] = molecular target: GDP-bound KRAS wild-type protein (Homo sapiens, UniProt P01116); experiment: Binding to KRAS by surface plasmon resonance (SPR), Single Cycle Kinetics; details: GDP-bound KRAS wild-type protein, read-out: KRAS KD
GDP-bound KRAS wild-type protein, sequence (P01116 whole entry): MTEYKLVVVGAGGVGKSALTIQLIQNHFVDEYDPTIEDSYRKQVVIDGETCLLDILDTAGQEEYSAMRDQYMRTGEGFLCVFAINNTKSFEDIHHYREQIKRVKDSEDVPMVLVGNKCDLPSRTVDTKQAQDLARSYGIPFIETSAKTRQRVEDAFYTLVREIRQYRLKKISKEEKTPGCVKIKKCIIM

[2] = molecular target: GDP-bound NRAS wild-type protein (Homo sapiens, UniProt P01111); experiment: Binding to NRAS by surface plasmon resonance (SPR), Single Cycle Kinetics; details: for NRAS/KRAS (ratio of KD value for NRAS to KD value for KRAS): GDP-bound NRAS wild-type protein vs GDP-bound KRAS wild-type protein; for NRAS/KRAS (ratio of KD value with respect to GDP-bound NRAS wild-type protein to KD value with respect to KRAS): SPR KD ratio NRAS/KRAS, class symbols
GDP-bound NRAS wild-type protein, sequence (P01111 whole entry): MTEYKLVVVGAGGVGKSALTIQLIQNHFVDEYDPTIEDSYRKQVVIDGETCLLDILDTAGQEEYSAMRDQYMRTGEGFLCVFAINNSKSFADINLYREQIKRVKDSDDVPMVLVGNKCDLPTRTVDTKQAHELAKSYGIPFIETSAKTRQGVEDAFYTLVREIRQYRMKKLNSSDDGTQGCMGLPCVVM

[3] = molecular target: GDP-bound HRAS wild-type protein (Homo sapiens, UniProt P01112); experiment: Binding to HRAS by surface plasmon resonance (SPR), Single Cycle Kinetics; details: for HRAS/KRAS (ratio of KD value for HRAS to KD value for KRAS): GDP-bound HRAS wild-type protein vs GDP-bound KRAS wild-type protein; for HRAS/KRAS (ratio of KD value with respect to GDP-bound HRAS wild-type protein to KD value with respect to KRAS): SPR KD ratio HRAS/KRAS, class symbols
GDP-bound HRAS wild-type protein, sequence (P01112 whole entry): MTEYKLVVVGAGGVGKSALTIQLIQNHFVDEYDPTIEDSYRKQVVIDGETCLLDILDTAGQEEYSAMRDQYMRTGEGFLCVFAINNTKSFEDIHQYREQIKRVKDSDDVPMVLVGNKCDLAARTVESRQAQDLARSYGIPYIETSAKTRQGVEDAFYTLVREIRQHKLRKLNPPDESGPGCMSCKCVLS

[4] = SPR Single Cycle Kinetics, 1:1 binding model

Row | Structure (SMILES) | Kd ([1]; SPR, Single Cycle Kinetics) [nM] | Kd [1, 4] [nM] | NRAS/KRAS (ratio of KD value for NRAS to KD value for KRAS) ([2]; SPR) | HRAS/KRAS (ratio of KD value for HRAS to KD value for KRAS) ([3]; SPR) | NRAS/KRAS (ratio of KD value with respect to GDP-bound NRAS wild-type protein to KD value with respect to KRAS) [2] | HRAS/KRAS (ratio of KD value with respect to GDP-bound HRAS wild-type protein to KD value with respect to KRAS) [3] | NRAS/KRAS (KD ratio) ([2]; ratio of KD for GDP-bound NRAS wild-type protein to KD for KRAS, SPR) | HRAS/KRAS (KD ratio) ([3]; ratio of KD for GDP-bound HRAS wild-type protein to KD for KRAS, SPR)
1 | CC[C@H](C)[C@@H]1NC(=O)[C@H](CC)N(C)C(=O)C[C@@H](C(=O)N(C)C)N(CC)C(=O)[C@H](C2CCCC2)N(C)C(=O)C2(CCC2)NC(=O)[C@@H]2CCCN2C(=O)[C@H](CCc2cc(F)c(C(F)(F)F)c(F)c2)NC(=O)CN(C)C(=O)[C@H](Cc2ccc(C(F)(F)F)cc2)N2CC/C=C\C[C@@H](C2=O)N(C)C(=O)CN(C)C1=O [PP1106] | 0.81 | – | A (a compound having 10 or more and less than 20 is denoted as A) | A (a compound having 10 or more and less than 20 is denoted as A) | – | – | – | –
2 | CCCN1CC(=O)NC2(CCCC2)C(=O)N(C)[C@@H](C2CCCC2)C(=O)N(C)[C@H](C(=O)N2CCOCC2)CC(=O)N(C)[C@@H](CC(C)C)C(=O)N[C@@H]([C@@H](C)CC)C(=O)N(C)CC(=O)N(C)CC(=O)N(CCC)[C@@H](Cc2ccc(C(F)(F)F)cc2)C(=O)N(C)CC(=O)N[C@@H](CCc2ccc(C(F)(F)F)c(Cl)c2)C1=O [PP0267] ([NMeL]I[Sar][Sar][NPrPhe(4-CF3)][Sar][hPhe(3-Cl-4-CF3)][NPrGly][Ac5c][NMeGly(cPent)][NMeD]-Morpholide; lactam N-11) | – | 0.87 | B (a compound having 3 or more and less than 10 is denoted as B) | B (a compound having 3 or more and less than 10 is denoted as B) | – | – | – | –
3 | CCO[C@@H]1C[C@H]2C(=O)NC3(CC(C)(C)C3)C(=O)N(C)[C@@H](C3CCCC3)C(=O)N(C)[C@H](C(=O)N3CCCC3)CC(=O)N(C)[C@H]3CCCC/C=C/c4ccc(cc4)C[C@@H](C(=O)N(C)CC(=O)N[C@@H](CCc4ccc(Cl)c(Cl)c4)C(=O)N2C1)N1CC/C=C\C[C@@H](C1=O)N(C)C(=O)CN(C)C(=O)[C@H]([C@@H](C)CC)NC3=O [PP2593] | – | 0.15 | – | – | A (a compound having 10 or more and less than 20 is denoted as A) | A (a compound having 10 or more and less than 20 is denoted as A) | – | –
4 | CCO[C@@H]1C[C@H]2C(=O)NC3(CCC3)C(=O)N(C)[C@@H](C3CCCC3)C(=O)N(CC)[C@H](C(=O)N3CCOCC3)CC(=O)N(C)[C@@H](Cc3ccccc3)C(=O)N[C@@H]([C@@H](C)CC)C(=O)N(C)CC(=O)N(C)[C@H]3CCCCCN(C3=O)[C@@H](Cc3ccc(C(F)(F)F)cc3)C(=O)N(C)CC(=O)N[C@@H](CCc3cc(F)c(C(F)(F)F)c(F)c3)C(=O)N2C1 [PP0950] | 6 | – | A (a compound having 10 or more and less than 20 is denoted as A) | B (a compound having 3 or more and less than 10 is denoted as B) | – | – | – | –
5 | CCO[C@@H]1C[C@H]2C(=O)NC3(CCC3)C(=O)N(C)[C@@H](C3CCCC3)C(=O)N(C)[C@H](C(=O)N(C)C)CC(=O)N(C)[C@@H](CC)C(=O)N[C@@H]([C@@H](C)CC)C(=O)N3CCSC[C@H]3C(=O)N(C)[C@H]3C/C=C\CCN(C3=O)[C@@H](Cc3ccc(C(F)(F)F)cc3)C(=O)N(C)CC(=O)N[C@@H](CCc3cc(F)c(C(F)(F)F)c(F)c3)C(=O)N2C1 [PP1060] | 2.6 | – | A (a compound having 10 or more and less than 20 is denoted as A) | A (a compound having 10 or more and less than 20 is denoted as A) | – | – | – | –
6 | CC[C@H](C)[C@@H]1NC(=O)[C@@H]2CCCCCCc3ccc(cc3)C[C@@H](C(=O)N(C)CC(=O)N[C@@H](CCc3ccc(C(F)(F)F)c(OC)c3)C(=O)N3C[C@H](OC(C)C)C[C@H]3C(=O)NC3(CC(C)(C)C3)C(=O)N(C)[C@@H](C3CCCC3)C(=O)N(C)[C@H](C(=O)N(C)C)CC(=O)N2C)N2CC/C=C\C[C@@H](C2=O)N(C)C(=O)CN(C)C1=O [PP3067] | 0.053 | – | A (a compound having 10 or more and less than 20 is denoted as A) | B (a compound having 3 or more and less than 10 is denoted as B) | – | – | – | –
7 | CC[C@H](C)[C@@H]1NC(=O)[C@H](CC(C)C)N(C)C(=O)C[C@@H](C(=O)N2CCOCC2)N(C)C(=O)[C@H](C2CCCC2)N(C)C(=O)C2(CCCC2)NC(=O)[C@@H]2CCCN2C(=O)[C@H](CCc2ccc(C(F)(F)F)c(Cl)c2)NC(=O)CN(C)C(=O)[C@H](Cc2ccc(C)cc2)N(C)C(=O)CN(C)C(=O)CN(C)C1=O [PP0018] ([NMeL]I[Sar][Sar][NMePhe(4-Me)][Sar][hPhe(3-Cl-4-CF3)]P[Ac5c][NMeGly(cPent)][NMeD]-Morpholide; lactam N-11) | – | 0.077 | C (A compound having a KD ratio of 0.1 or more and less than 3 is denoted as C) | C (A compound having a KD ratio of 0.1 or more and less than 3 is denoted as C) | – | – | – | –

Second part, led by results:

Row | Kd ([1]; SPR, Single Cycle Kinetics) [nM] | Kd [1, 4] [nM] | Structure (SMILES) | NRAS/KRAS (ratio of KD value for NRAS to KD value for KRAS) ([2]; SPR) | HRAS/KRAS (ratio of KD value for HRAS to KD value for KRAS) ([3]; SPR) | NRAS/KRAS (ratio of KD value with respect to GDP-bound NRAS wild-type protein to KD value with respect to KRAS) [2] | HRAS/KRAS (ratio of KD value with respect to GDP-bound HRAS wild-type protein to KD value with respect to KRAS) [3] | NRAS/KRAS (KD ratio) ([2]; ratio of KD for GDP-bound NRAS wild-type protein to KD for KRAS, SPR) | HRAS/KRAS (KD ratio) ([3]; ratio of KD for GDP-bound HRAS wild-type protein to KD for KRAS, SPR)
8 | 0.066 | – | CCO[C@@H]1C[C@H]2C(=O)N(C)C3(CC(C)(C)C3)C(=O)N(C)[C@@H](C3CCCC3)C(=O)N(C)[C@H](C(=O)N(C)C)CC(=O)N(C)[C@H]3CCCC/C=C/c4ccc(cc4)C[C@@H](C(=O)N(C)CC(=O)N[C@@H](CCc4ccc(Cl)c(Cl)c4)C(=O)N2C1)N1CC/C=C\C[C@@H](C1=O)N(C)C(=O)CN(C)C(=O)[C@H]([C@@H](C)CC)NC3=O [PP3062] | A (a compound having 10 or more and less than 20 is denoted as A) | A (a compound having 10 or more and less than 20 is denoted as A) | – | – | – | –
9 | 0.036 | – | CCO[C@@H]1C[C@H]2C(=O)NC3(CCCC3)C(=O)N(C)[C@@H](C3CCCC3)C(=O)N(C)[C@H](C(=O)N(C)C)CC(=O)N(C)[C@@H](CC)C(=O)N[C@@H]([C@@H](C)CC)C(=O)N(C)CC(=O)N(C)[C@H]3C[C@@H](C)CCN(C3=O)[C@@H](Cc3ccc(C(F)(F)F)cc3)C(=O)N(C)CC(=O)N[C@@H](CCc3cc(F)c(C(F)(F)F)c(F)c3)C(=O)N2C1 [PP1022] | C (A compound having a KD ratio of 0.1 or more and less than 3 is denoted as C) | B (a compound having 3 or more and less than 10 is denoted as B) | – | – | – | –
10 | 0.051 | – | CCO[C@@H]1C[C@H]2C(=O)NC3(CC(C)(C)C3)C(=O)N(C)[C@@H](C3CCCC3)C(=O)N(C)[C@H](C(=O)N(C)CC)CC(=O)N(C)[C@H]3CCC/C=C/c4ccc(cc4)C[C@@H](C(=O)N(C)CC(=O)N[C@@H](CCc4cc(F)c(C(F)(F)F)c(F)c4)C(=O)N2C1)N1CC/C=C\C[C@@H](C1=O)N(C)C(=O)CN(C)C(=O)[C@H]([C@@H](C)CC)NC3=O [PP1835] | – | – | – | – | A (a compound having 10 or more and less than 20 is denoted as A) | B (a compound having 3 or more and less than 10 is denoted as B)
11 | – | 1.5 | CCC[C@H]1C(=O)N[C@@H]([C@@H](C)CC)C(=O)N(C)CC(=O)N(C)[C@H]2C/C=C\CCN(C2=O)[C@@H](Cc2ccc(C(F)(F)F)cc2)C(=O)N(C)CC(=O)N[C@@H](CCc2ccc(C(F)(F)F)c(OC)c2)C(=O)N2CCOC[C@H]2C(=O)NC2(CC(C)(C)C2)C(=O)N(C)[C@@H](C(CC)CC)C(=O)N(C)[C@H](C(=O)N(C)C)CC(=O)N1C [PP2935] | – | – | A (a compound having 10 or more and less than 20 is denoted as A) | A (a compound having 10 or more and less than 20 is denoted as A) | – | –
